Results from patent US20150148256A1, “BIOLUMINESCENCE IMAGING-BASED SCREENING ASSAY AND INHIBITORS OF ABCG2” (THE JOHNS HOPKINS UNIVERSITY, priority 2008, published 2015).
Counter-ions that a name gives are not always drawn. Residues, ends and D or L forms follow the SMILES beside them.

biological target: T1, ABCG2 (Homo sapiens, UniProt Q9UNQ0); experiment: Bioluminescence imaging (BLI) assay in HEK293/ABCG2/fLuc cells; details: not given
T1 sequence (Q9UNQ0 1-655): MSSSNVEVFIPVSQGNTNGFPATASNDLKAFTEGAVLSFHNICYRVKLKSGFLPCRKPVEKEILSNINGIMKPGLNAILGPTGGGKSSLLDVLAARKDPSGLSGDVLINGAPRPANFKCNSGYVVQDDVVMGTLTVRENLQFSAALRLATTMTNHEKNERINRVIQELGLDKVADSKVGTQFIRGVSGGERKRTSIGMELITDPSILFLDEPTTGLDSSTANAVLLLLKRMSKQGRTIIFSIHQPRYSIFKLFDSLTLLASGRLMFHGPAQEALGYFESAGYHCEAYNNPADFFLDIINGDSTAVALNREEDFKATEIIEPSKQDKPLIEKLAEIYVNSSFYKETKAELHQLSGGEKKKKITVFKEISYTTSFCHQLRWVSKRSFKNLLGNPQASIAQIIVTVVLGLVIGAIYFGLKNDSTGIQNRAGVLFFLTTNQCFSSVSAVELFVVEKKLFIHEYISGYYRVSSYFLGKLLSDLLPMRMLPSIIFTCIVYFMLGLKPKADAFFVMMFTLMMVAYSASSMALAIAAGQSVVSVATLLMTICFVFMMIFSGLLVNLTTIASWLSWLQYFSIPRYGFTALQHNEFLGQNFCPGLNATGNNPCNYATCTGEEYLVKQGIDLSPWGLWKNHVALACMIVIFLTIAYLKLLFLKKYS
Protocol: HEK293/ABCG2/fLuc cells were plated into 96-well plates at a density of 4×10^4 cells/100 μL per well and were allowed to attach overnight. The following day, 10 μL of each compound or the control solvent was transferred from a compound library in a 96-well, high-throughput format into the wells using a multichannel pipette. […] Images were taken every 5 minutes for ˜1 h. Light output from each well was quantified at the 40 min time point after initiation of imaging, and the signal-to-background (S/B) ratio of the light output from each compound divided by that from the control well was calculated. This S/B ratio serves as an indicator of the potency of ABCG2 inhibition, the mechanism by which BLI signal is enhanced.
Images were taken every 5 min for ˜1 h, and light output from each well at the 40 min time point was chosen for quantification. The SB ratio of the light output from each compound divided by that from the control well was calculated. This ratio was used as an indicator of the potency of ABCG2 inhibition, the mechanism by which BLI signal is enhanced.
The BLI signal-enhancing effect of selected ABCG2 inhibitors was evaluated within the range of 0.001 μM-100 μM, with HEK293/ABCG2/fLuc cells and 50 μg/mL D-luciferin. The data obtained at 40 min after imaging commencement were chosen arbitrarily to be plotted (FIG. 3).

Compound | Fold (BLI enhancement, S/B ratio over control)
FC(F)(F)c1ccc2c(c1)N(CCCN1CCN(CCCl)CC1)c1ccccc1S2 [fluphenazine N-mustard] | 3.6 fold

same assay, conditions: Table 2; HEK293/ABCG2/fLuc cells, compound approximately 17 μM, ~50 μg/mL D-luciferin, 40 min time point

Compound | Fold (BLI enhancement, S/B ratio over control)
ivermect n | 4.3 fold
COc1ccc2cc3[n+](cc2c1OC)CCc1cc2c(cc1-3)OCO2.O=S(=O)([O-])O [berberine bisulfate] | 2.2 fold
CC[C@H]1/C=C/C=C/C[C@@H](C)[C@H](O)[C@@](C)(O)C(=O)[C@@H](C)[C@H](O)[C@@H](C)C(=O)[C@@H](C)[C@H](O)[C@@H](C)/C=C/C(=O)O[C@@H]2[C@H](C)[C@H](CC1)O[C@]1(CC[C@H](C)[C@H](C[C@@H](C)O)O1)[C@H]2C [oligomycin] | 5.0 fold
C=C(C)[C@]12C[C@@H](C)[C@@]34O[C@](Cc5ccccc5)(O[C@@H]1[C@@H]3C=C(COC(=O)Cc1ccc(O)c(OC)c1)C[C@]1(O)C(=O)C(C)=C[C@@H]41)O2 [resiniferatoxin] | 4.2 fold
CSc1ccc2c(c1)N(CCC1CCCCN1C)c1ccccc1S2 (centres unmarked) [th oridaz ne] | 2.5 fold
COc1ccc(CCN(C)CCCC(C#N)(c2cc(OC)c(OC)c(OC)c2)C(C)C)cc1OC (centres unmarked) [gallopamil] | 2.4 fold

same assay, conditions: Table 4; approximately 17 μM, 40 min time point

Compound | Fold (BLI enhancement), previously unknown compounds
CC[C@H]1/C=C/C=C/C[C@@H](C)[C@H](O)[C@@](C)(O)C(=O)[C@@H](C)[C@H](O)[C@@H](C)C(=O)[C@@H](C)[C@H](O)[C@@H](C)/C=C/C(=O)O[C@@H]2[C@H](C)[C@H](CC1)O[C@]1(CC[C@H](C)[C@H](C[C@@H](C)O)O1)[C@H]2C [oligomycin] | 5.0 fold

same assay, conditions: human

Compound | Fold (BLI enhancement, S/B ratio over control) | Fold (BLI enhancement), known compounds | Fold (BLI enhancement), previously unknown compounds
CC[C@@]1(O)C[C@H](O[C@H]2C[C@H](N(C)C)[C@H](O)[C@H](C)O2)c2c(cc3c(c2O)C(=O)c2c(O)cccc2C3=O)[C@H]1C(=O)OC [aklavine hydrochloride] | 2.5 fold | – | –
COC(=O)C1=C(C)NC(C)=C(C(=O)OCCCN2CCC(c3ccccc3)(c3ccccc3)CC2)[C@H]1c1cccc([N+](=O)[O-])c1 [niguldipine] | 5.9 fold | 5.9 fold | –
CN1C[C@H](C(=O)N[C@]2(C)O[C@@]3(O)[C@@H]4CCCN4C(=O)[C@H](Cc4ccccc4)N3C2=O)C[C@@H]2c3cccc4[nH]cc(c34)C[C@H]21 [dihydroergotamine mesylate] | 9.6 fold | – | 9.6 fold
COc1ccc2c(c1)[nH]c1c(C)nccc12 [harmine] | 8.9 fold | 8.9 fold | –

same assay, conditions: human, 40 min, 17 μM

Compound | Fold (BLI enhancement, S/B ratio over control) | fold (BLI enhancement), additional previously known ABCG2 inhibitors | Fold (BLI enhancement), known compounds | BLI signal enhancement | Fold (BLI enhancement), previously unknown compounds
CC(C)(O/N=C(\C(=O)N[C@@H]1C(=O)N2C(C(=O)[O-])=C(C[n+]3ccccc3)CS[C@H]12)c1csc(N)n1)C(=O)O [ceftazidime] | 2.5 fold | – | – | – | –
OCCN1CCN(CCCN2c3ccccc3Sc3ccc(C(F)(F)F)cc32)CC1 [fluphenazine] | 2.0 fold | – | – | – | –
COc1ccc(CCN2CCC(Nc3nc4ccccc4n3Cc3ccc(F)cc3)CC2)cc1 [astemizole] | 2.8 fold | – | – | – | –
CN1CCCC(n2nc(Cc3ccc(Cl)cc3)c3ccccc3c2=O)CC1 (centres unmarked) [azelastine hydrochloride] | 2.4 fold | – | – | – | –
Nc1c2ccccc2nc2ccccc12 [aminacrine] | 2.9 fold | – | – | – | –
COc1cc(N)c(Cl)cc1C(=O)NC1CCN(Cc2ccccc2)CC1 [clebopride] | 6.7 fold | – | – | – | 6.7 fold
CCN(CC)Cc1cc(Nc2ccnc3cc(Cl)ccc23)ccc1O [amodiaquin] | 3.8 fold | – | – | – | –
CC(=O)Oc1ccc2c(c1)CCC1C2CC[C@]2(C)C(=O)CCC12 (some centres unmarked) [estrone acetate] | 4.1 fold | – | – | – | –
C=C1CC[C@H](O)C/C1=C/C=C1\CCC[C@]2(C)[C@@H]([C@H](C)CCCC(C)(C)O)CC[C@@H]12 [calcifediol] | 3.2 fold | – | – | – | –
CCC(=O)O[C@]1(C(=O)CCl)[C@@H](C)C[C@H]2[C@@H]3CCC4=CC(=O)C=C[C@]4(C)[C@@]3(F)[C@@H](O)C[C@@]21C [clobetasol propionate] | 3.3 fold | – | – | – | –
Cn1c(=O)c2[nH]c(C3CCCC3)nc2n(C)c1=O [8-cyclopentyltheophylline] | 2.9 fold | – | – | – | –
O=c1cc(-c2ccccc2)oc2cc(O)cc(O)c12 [chrysin] | 2.3 fold | 2.3 fold | – | – | –
COc1cc(/C=C/C(=O)CC(=O)/C=C/c2ccc(O)c(OC)c2)ccc1O [curcumin] | 6.3 fold | – | 6.3 fold | – | –

Now from value to compound, other results behind:

Fold (BLI enhancement, S/B ratio over control) | fold (BLI enhancement), additional previously known ABCG2 inhibitors | Fold (BLI enhancement), known compounds | BLI signal enhancement | Compound | Fold (BLI enhancement), previously unknown compounds
2.0 fold | – | – | – | CCCc1nc2c(C)cc(-c3nc4ccccc4n3C)cc2n1Cc1ccc(-c2ccccc2C(=O)O)cc1 [telmisartan] | –
4.2 fold | – | – | – | OCCN1CCN(CCCN2c3ccccc3Sc3ccc(Cl)cc32)CC1 [perphenazine] | –
3.2 fold | – | – | – | Cc1c(-c2cnccn2)ssc1=S [oltipraz] | –
2.3 fold | – | – | – | CC(=O)[C@H]1CC[C@H]2[C@@H]3C[C@H](C)C4=CC(=O)CC[C@]4(C)[C@H]3[C@@H](O)C[C@]12C [medrysone] | –
3.2 fold | – | – | – | COC(=O)C1=C(C)NC(C)=C(C(=O)OCC(C)C)C1c1ccccc1[N+](=O)[O-] (centres unmarked) [nisoldipine] | –
2.2 fold | – | – | – | NCCS [mercaptamine hydrochloride] | –
2.9 fold | 2.9 fold | – | – | COC(=O)C1=C(C)NC(C)=C(C(=O)OCCN(C)Cc2ccccc2)C1c1cccc([N+](=O)[O-])c1 (centres unmarked) [nicardipine] | –
5.4 fold | – | 5.4 fold | – | COC(=O)[C@H]1[C@H]2C[C@@H]3c4[nH]c5cc(OC)ccc5c4CCN3C[C@H]2C[C@@H](OC(=O)c2cc(OC)c(OC)c(OC)c2)[C@@H]1OC [reserpine] | –
3.3 fold | – | – | – | CCCc1nc(C)c2c(=O)[nH]c(-c3cc(S(=O)(=O)N4CCN(CC)CC4)ccc3OCC)nn12 [vardenafil] | –
3.0 fold | – | – | – | COc1cc([S+](C)[O-])ccc1-c1nc2ncccc2[nH]1 (centres unmarked) [sulmazole] | –
– | 1.2 fold | – | 1.2 fold | O=c1c(-c2ccc(O)cc2)coc2cc(O)cc(O)c12 [genistein] | –
3.2 fold | – | – | – | CCN(CCCCOC(=O)c1ccc(OC)c(OC)c1)C(C)Cc1ccc(OC)cc1 (centres unmarked) [mebeverine hydrochloride] | –
6.6 fold | – | – | – | CCCc1nn(C)c2c(=O)[nH]c(-c3cc(S(=O)(=O)N4CCN(C)CC4)ccc3OCC)nc12 [sildenafil] | 6.6 fold
2.3 fold | – | – | – | CC(C)OC(=O)C(C)(C)Oc1ccc(C(=O)c2ccc(Cl)cc2)cc1 [fenofibrate] | –
2.3 fold | – | – | – | CN(C)CCOc1ccc(/C(=C(/CCCl)c2ccccc2)c2ccccc2)cc1 [toremifene] | –
– | 3.6 fold | – | – | C[C@]12CC[C@@H]3c4ccc(O)cc4CC[C@H]3[C@@H]1CC[C@@H]2O [estradiol] | –
2.2 fold | – | – | – | O=c1[nH]c(=O)n([C@H]2C[C@H](O)[C@@H](CO)O2)cc1F [floxuridine] | –
4.0 fold | – | – | – | CCc1c2c(nc3ccc(OC(=O)N4CCC(N5CCCCC5)CC4)cc13)-c1cc3c(c(=O)n1C2)COC(=O)[C@]3(O)CC [irinotecan hydrochloride] | –
3.3 fold | – | – | – | O=C(C1CCCCC1)N1CC(=O)N2CCc3ccccc3C2C1 (centres unmarked) [praziquantel] | –
2.2 fold | – | – | – | CN1C2CCCC1CC(NC(=O)c1nn(C)c3ccccc13)C2 (centres unmarked) [granisetron hydrochloride] | –
2.5 fold | – | – | – | NC1(C(=O)NCC(=O)O)CCCC1 [cycloleucylglycine] (HELM PEPTIDE1{[NC1(C(=O)[*:2])CCCC1].G}$$$$V2.0) | –
3.0 fold | – | – | – | CCOC(=O)C1=C(C)NC(C)=C(C(=O)OC)C1c1cccc(Cl)c1Cl (centres unmarked) [felodipine] | –
2.0 fold | – | – | – | CCCC(=O)O[C@]1(C(=O)COC(C)=O)CC[C@H]2[C@@H]3C[C@H](F)C4=CC(=O)C=C[C@]4(C)[C@@]3(F)[C@@H](O)C[C@@]21C [difluprednate] | –
4.0 fold | – | – | – | COc1ccc(CN2CCN(C(c3ccc(F)cc3)c3ccc(F)cc3)CC2)c(OC)c1OC [lomerizine hydrochloride] | –
